Consider 18 compounds from patent US8173808B2, “Substituted naphthalenyl-pyrimidine compounds” (ArQule, Inc., priority 2009, dated 2012).

The target in data set [1] is full length inactive AKT1 protein (Homo sapiens, UniProt P31749). The data set is described as follows: AKT activity; thermal shift binding assay. As to conditions: class symbol for inhibition. How it is done:
Aliquots of compounds in DMSO (1 μL @ 375 μM) were placed in the V bottom 96 well PCR plate, and incubated for 30 minutes with 24 μL of AKT1 protein in 25 mM TRIS buffer pH 7.5, 100 mM NaCl, 0.1% 2-mercaptoethanol, pre-mixed with environmentally sensitive fluorescent dye Sypro Orange (12.5×). The plates were centrifuged for […] @ 2000 rpm and 25° C. before the analysis on the IQ5 Real time PCR machine (Biorad). The thermal stability of the protein-ligand complex was monitored by changes in Sypro Orange fluorescence while subjecting the binding mixture to a temperature gradient of 30 to 75° C. at 1° C./min heating rate. Shifts in the protein melting temperature (ΔTm) greater than 0.6° C. compared to the protein alone were indicative of the inhibitor binding. Dissociation constants (Kd's) for the inhibitors were calculated from the melting curves as described in Mei-Chu-Lo et al., Anal.Biochem., 332: 153, 2004.

For a further data set, the target named is T1, p70S6K (Homo sapiens, UniProt P23443).
T1 construct: purchased Upstate/Millipore
The data set is described as follows: p70S6 kinase activity assay (HTRF). Type of data set: biochemical. As to conditions: class symbol for inhibition. How it is done:
p70S6K activity was assayed using Cisbio's homogeneous time-resolved fluorescence (HTRF®) technology. The extent of phosphorylation of the biotinylated peptide substrate STK-S3 is determined using a phospho-specific STK Antibody labeled with Eu^3+-cryptate and streptavidin-XL665 that will bind to the biotin on the peptide. When in close proximity, excitation of the Eu^3+ cryptate donor fluorophore results in fluorescence resonance energy transfer (FRET) to the XL665 acceptor fluorophore and the emission signal from XL665 is measured.
The assay is performed using reagents from the HTRF® KinEASE™-STK kit from Cisbio including enzymatic buffer (50 mM HEPES pH7, 0.02% NaN3, 0.01% BSA, and 0.1 mM Na3VO4), STK-S3 substrate-biotin, Eu^3+-Cryptate labeled STK antibody, Streptavidin-XL665, and detection buffer (50 mM HEPES pH 7, 0.1% BSA, 0.8M KF, and 20 mM EDTA). Test inhibitors and controls (staurosporine) are prepared at 5× the desired final concentration. Test compound (5.0 μL), p70S6 (10 μL) from Upstate/Millipore (final concentration is 2.5 ng/well), and 10 μL substrate/ATP are added to each well of a reaction plate (Corning 96-well half-area solid black nonbinding surface plate). All reaction components are diluted in enzymatic buffer supplemented with 2 mM MgCl2 and 1 mM DTT. The final concentration of STK-S3 substrate is 500 nM and the final concentration of ATP is 100 μM.
In general terms: In TR-FRET formats the signal depends on donor and acceptor labels being close together.

The subject of a further data set is FGFR2 kinase. Put plainly: FGFR2 kinase fluorescent ELISA assay. The data set is classed as biochemical. To be noted: class symbol for inhibition. The procedure: A fluorescent ELISA assay was developed to identify and characterize inhibitors of FGFR2 kinase. This heterogeneous assay utilizes a biotinylated peptide with a tyrosine motif as a substrate and an anti-phospho-tyrosine antibody to measure phosphorylation of the substrate. The reaction is initiated by adding test compound, 37 uM Pyk2 substrate (Midwest Biotech, cat. #MBT2383) and 12.5 μM ATP (Roche, cat. #11 140 965 001), and 0.5 μM FGFR2 enzyme (Millipore, cat. #14-742) sequentially to a non-binding polypropylene V-well plate. All reagents are in assay buffer consisting of: 50 mM Tris-HCL, 0.02 mg/mL BSA, 10 mM MgCl2, 0.1 mM Na3VO4, 1 mM EGTA, 75 μM ATP, 0.01% NP-40, 2 mM DTT, 10% Glycerol. The reaction is incubated for 60 minutes. As the reaction proceeds, FGFR2 phosphorylates tyrosines in the peptide. The reaction mixture is then moved to a blocked streptavidin coated Nunc Maxisorb plate (coated with 100 ng streaptavidin from Pierce (cat #15-124) per well) allowing for the capture of the biotinylated peptide. Peptide is captured for 30 minutes at room temperature, the phosphorylation of peptide continues during this phase. The reaction is stopped by washing the Streptavidin plate 6 times with TBST. Phosphorylated peptide is detected by adding anti-phospho tyrosine antibody (purchased from Cell Signaling, cat. #9411, diluted 1:3000), unbound antibody is removed by washing 6 times with TBST. Secondary detection is performed using Alkaline Phosphatase tagged goat anti-mouse antibody (purchased from Pierce, cat. #31320, diluted 1:4000) for one hour. Unbound secondary antibody is removed by washing 6 times with TBST.
The fluorescent readout is initiated by the addition of Promega Attophos substrate (purchased from Promega; Kit catalog number: S1000, dilution=6 mg/10 mL), which when dephosphorylated by Alkaline phosphatase emits a fluorescent signal of […] when excited by a signal […]. This reading is done on the Perkin Elmer Envision system. Compounds which prevent the FGFR2 from phosphorylating the peptide result in a lower fluorescent signal. The signal is directly proportional to the activity of FGFR2 and compound inhibition of FGFR2 is monitored by a decrease in signal.

Counter-ions that a name gives are not always drawn.

A word on the melting point: it is the temperature, or range, at which the solid turns liquid.

Chain of full length inactive AKT1 protein (P31749 whole entry): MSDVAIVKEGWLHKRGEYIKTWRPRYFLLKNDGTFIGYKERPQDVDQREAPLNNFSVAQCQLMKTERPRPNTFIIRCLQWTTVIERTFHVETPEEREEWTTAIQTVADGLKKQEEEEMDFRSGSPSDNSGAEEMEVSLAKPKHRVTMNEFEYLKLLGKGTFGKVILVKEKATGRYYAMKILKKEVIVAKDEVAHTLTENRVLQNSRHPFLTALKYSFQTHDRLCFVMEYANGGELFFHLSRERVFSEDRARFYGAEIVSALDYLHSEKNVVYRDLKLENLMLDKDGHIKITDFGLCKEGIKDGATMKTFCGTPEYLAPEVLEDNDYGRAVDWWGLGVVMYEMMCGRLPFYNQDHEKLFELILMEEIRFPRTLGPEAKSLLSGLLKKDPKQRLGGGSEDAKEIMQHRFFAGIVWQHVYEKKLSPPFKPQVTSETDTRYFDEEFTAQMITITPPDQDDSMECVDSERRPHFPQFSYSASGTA
T1 sequence (P23443 whole entry): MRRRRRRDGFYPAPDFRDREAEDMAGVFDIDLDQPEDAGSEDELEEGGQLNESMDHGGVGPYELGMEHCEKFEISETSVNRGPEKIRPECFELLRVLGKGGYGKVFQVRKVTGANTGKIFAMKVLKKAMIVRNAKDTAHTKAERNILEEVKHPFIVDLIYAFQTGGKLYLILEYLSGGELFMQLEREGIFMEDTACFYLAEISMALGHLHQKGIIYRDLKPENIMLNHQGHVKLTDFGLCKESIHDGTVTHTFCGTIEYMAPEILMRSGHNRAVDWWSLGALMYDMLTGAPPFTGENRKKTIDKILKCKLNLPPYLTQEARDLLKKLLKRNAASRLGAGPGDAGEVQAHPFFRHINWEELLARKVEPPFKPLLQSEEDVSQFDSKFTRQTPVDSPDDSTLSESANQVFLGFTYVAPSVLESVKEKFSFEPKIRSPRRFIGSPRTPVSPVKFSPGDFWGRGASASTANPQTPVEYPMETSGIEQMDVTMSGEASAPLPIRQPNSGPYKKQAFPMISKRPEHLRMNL

As for “N-(3-(3-benzoyl-1H-indol-4-ylamino)phenyl)-3-(pyridin-3-yl)propanamide [Compound 1a]”, the AKT activity entry in data set [1] is on record as “+ (A positive sign indicates that inhibition is greater or equal to 25%)”. The p70S6 kinase activity result on p70S6K is “+ (A positive sign indicates that inhibition is greater or equal to 25%)”. Besides, the FGFR2 kinase activity result in the data set on FGFR2 kinase is “− (A negative sign indicates that inhibition is less than 25%)”.

Consider “N^1-(3-(5-benzoyl-7H-pyrrolo[2,3-d]pyrimidin-4-ylamino)phenyl)succinamide [Compound 10a]”, for which the AKT activity result in data set [1] is “− (A negative sign indicates that inhibition is less than 25%)”. For the same compound, the p70S6 kinase activity result on p70S6K is listed as “− (A negative sign indicates that inhibition is less than 25%)”. The FGFR2 kinase activity entry in the data set on FGFR2 kinase was “+ (A positive sign indicates that inhibition is greater or equal to 25%)”.

In the case of “N-(3-(5-benzoyl-7H-pyrrolo[2,3-d]pyrimidin-4-ylamino)phenyl)-5-(pyrrolidin-1-yl)pentanamide [Compound 8a]”, in data set [1], the AKT activity entry is “+ (A positive sign indicates that inhibition is greater or equal to 25%)”. In addition, on p70S6K, the p70S6 kinase activity entry was “− (A negative sign indicates that inhibition is less than 25%)”. The FGFR2 kinase activity result with FGFR2 kinase is “+ (A positive sign indicates that inhibition is greater or equal to 25%)”.

On to “N-(3-(5-benzoyl-7H-pyrrolo[2,3-d]pyrimidin-4-ylamino)phenyl)-4-(dimethylamino)butanamide [Compound 3a]”, for which the AKT activity result in data set [1] is recorded as “− (A negative sign indicates that inhibition is less than 25%)”. For the same compound, at p70S6K, the p70S6 kinase activity result is given as “+ (A positive sign indicates that inhibition is greater or equal to 25%)”. Also, the FGFR2 kinase activity entry with FGFR2 kinase is on record as “− (A negative sign indicates that inhibition is less than 25%)”.

Consider “3-acetamido-N-(3-(5-benzoyl-7H-pyrrolo[2,3-d]pyrimidin-4-ylamino)phenyl)propanamide [Compound 4a]”, for which the AKT activity entry in data set [1] is listed as “− (A negative sign indicates that inhibition is less than 25%)”. Further, on p70S6K, the p70S6 kinase activity result was “+ (A positive sign indicates that inhibition is greater or equal to 25%)”. The FGFR2 kinase activity entry in the data set on FGFR2 kinase is “− (A negative sign indicates that inhibition is less than 25%)”.

For “(4-(3-aminophenylamino)-7H-pyrrolo[2,3-d]pyrimidin-5-yl)(phenyl)methanone [Compound 5a]”, in data set [1], the AKT activity result is on record as “+ (A positive sign indicates that inhibition is greater or equal to 25%)”. Also, the p70S6 kinase activity result at p70S6K is on record as “+ (A positive sign indicates that inhibition is greater or equal to 25%)”. The FGFR2 kinase activity entry with FGFR2 kinase is on record as “− (A negative sign indicates that inhibition is less than 25%)”.

Regarding “N-(3-(5-benzoyl-7H-pyrrolo[2,3-d]pyrimidin-4-ylamino)phenyl)acetamide [Compound 9a]”, the AKT activity entry in data set [1] was “+ (A positive sign indicates that inhibition is greater or equal to 25%)”. The p70S6 kinase activity result at p70S6K is listed as “− (A negative sign indicates that inhibition is less than 25%)”. Besides, the FGFR2 kinase activity entry in the data set with FGFR2 kinase is given as “− (A negative sign indicates that inhibition is less than 25%)”.

`CNc1nccc(-c2cc(NCCCNCCCOC)c3cc(OC)ccc3c2)n1` (as salt: HCl) [Compound 190, N-{7-methoxy-3-[2-(methylamino)pyrimidin-4-yl]-1-naphthyl}-N′-(3-methoxypropyl)propane-1,3-diamine]: the melting point was in the range of 130 to 132 °C.

Turning to “2-acetamido-N-(3-(5-benzoyl-7H-pyrrolo[2,3-d]pyrimidin-4-ylamino)phenyl)acetamide [Compound 2a]”, the AKT activity result in data set [1] is “− (A negative sign indicates that inhibition is less than 25%)”. Further, the p70S6 kinase activity entry on p70S6K was “+ (A positive sign indicates that inhibition is greater or equal to 25%)”. The FGFR2 kinase activity entry in the data set on FGFR2 kinase is given as “− (A negative sign indicates that inhibition is less than 25%)”.

The compound `COc1cccc(CNc2nccc(-c3cc(N4CCN(CCCN(C)C)CC4)c4cc(OC)ccc4c3)n2)c1` [Compound 195, 4-(4-(4-(3-(dimethylamino)propyl)piperazin-1-yl)-6-methoxynaphthalen-2-yl)-N-(3-methoxybenzyl)pyrimidin-2-amine] gave a melting point of 70 to 75 °C.

Consider `COc1ccc2cc(-c3ccnc(NCCc4ccc(OC)c(OC)c4)n3)cc(N3CCN(c4ncnc5[nH]nc(Br)c45)CC3)c2c1` [Compound 179, 4-{4-[4-(3-bromo-1H-pyrazolo[3,4-d]pyrimidin-4-yl)piperazin-1-yl]-6-methoxy-2-naphthyl}-N-[2-(3,4-dimethoxyphenyl)ethyl]pyrimidin-2-amine], for which the melting point lay within 130 to 133 °C.

Consider `COCCCNc1nccc(-c2cc(N3CCNCC3)c3cc(OC)ccc3c2)n1` [Compound 113, 4-(6-methoxy-4-piperazin-1-yl-2-naphthyl)-N-(3-methoxypropyl)pyrimidin-2-amine], for which the melting point lay in the range of 136 to 138 °C.

`CNc1nccc(-c2cc(NC(=O)CN(C)C)c3cc(OC)ccc3c2)n1` [Compound 137, 2-(dimethylamino)-N-(7-methoxy-3-(2-(methylamino)pyrimidin-4-yl)naphthalen-1-yl)acetamide]: the melting point fell in the range of 70 to 73 °C.

Compound `CNc1nccc(-c2cc(NC(=O)c3ccc(C(C)(C)C)cc3)c3cc(OC)ccc3c2)n1` [Compound 184, 4-tert-butyl-N-{7-methoxy-3-[2-(methylamino)pyrimidin-4-yl]-1-naphthyl}benzamide] gave a melting point of 231 to 232 °C.

`COc1cccc(CCNc2nccc(-c3cc(N4CCNCC4)c4cc(OC)ccc4c3)n2)c1` [Compound 115, N-[2-(3-methoxyphenyl)ethyl]-4-(6-methoxy-4-piperazin-1-yl-2-naphthyl)pyrimidin-2-amine] showed a melting point of 142 to 144 °C.

`CNc1nccc(-c2cc(NCCCNc3ncnc4[nH]nc(Br)c34)c3cc(OC)ccc3c2)n1` [Compound 183, N1-(3-bromo-1H-pyrazolo[3,4-d]pyrimidin-4-yl)-N3-(7-methoxy-3-(2-(methylamino)pyrimidin-4-yl)naphthalen-1-yl)propane-1,3-diamine]: the melting point fell in the range of 145 to 148 °C.

Compound `CNc1nccc(-c2cc(NC(C)=O)c3cc(OC)ccc3c2)n1` [Compound 186, N-{7-methoxy-3-[2-(methylamino)pyrimidin-4-yl]-1-naphthyl}acetamide] had a melting point of 234 to 235 °C.

`CCN(CC)CCCN1CCN(c2cc(-c3ccnc(NCc4cccc(OC)c4)n3)cc3ccc(OC)cc23)CC1` (as salt: hydrochloride) [Compound 197, 4-(4-(4-(3-(diethylamino)propyl)piperazin-1-yl)-6-methoxynaphthalen-2-yl)-N-(3-methoxybenzyl)pyrimidin-2-amine]: the melting point lay in the range of 156 to 160 °C.
